From patent US10894794B1, “Substituted [1,2,4]triazolo[4,3-a]pyrazines as antidiabetics” (King Abdulaziz University, priority 2019, dated 2021) come the findings set out here.

Type in all cases: in vivo
Test [1] has as its system 14 h overnight-fasted diabetic mice. Kind of test: Blood glucose after introduction of food for one hour (meal tolerance test). As to conditions: for antihyperglycemic activity after introduction of food (blood glucose rise and total AUC(0-180), in words): 50 mg/kg, 3 h before introduction of food; for Area under the curve AUC(0-180) after meal feeding: Day 1, 50 mg/kg oral, 3 hr pretreated. The protocol: The rational of this test was to determine the ability of the tested compounds to modulate glucose utilization after the introduction of food, after 3 h of drug administration to 14 h overnight-fasted mice (feeding with normal diet was done for 1 hr only, then food was removed during the remaining time of the test). This model is analogous to oral glucose tolerance tests (OGTT) used clinically to evaluate glycemic control, except that the meal was composed of fats, proteins and carbohydrates, and thus was a more realistic representation of the nutritional makeup of normal food. The main purpose is that during meal digestion, food contents e.g. carbohydrates, proteins and fats, were reported to cause an increase in the production of the GLP-I from the L-cells in ileum and colon. The produced GLP-I goes into circulation directly and affects insulin secretion from pancreatic β-cells. Both the GPL-I and insulin levels are expected to be high especially in the presence of a […] inhibitor.
Animals were Distributed Between 17 Groups (n=6) as Follows: • a. Group 1. Animals of this group were overnight-fasted normoglycemic mice and received the vehicle (1% CMC-Na) at a volume of 10 ml/kg/day for 4 consecutive days. • b. Group 2: overnight-fasted diabetic mice received the vehicle (1% CMC-Na) at a volume of 10 ml/kg/day for 4 consecutive days and served as a negative control. • c. Group 3: overnight fasted diabetic mice received sitagliptin at a dose of 50 mg/kg/day for 4 consecutive days in 1% CMC (in a volume of 10 ml/kg) and served as positive control. • d. Groups 4-19: Animals of these groups were overnight-fasted diabetic mice and received the tested compounds 128, 129, 130, 131,140, 142 at a dose of 50 mg/kg/day for 4 consecutive days in 1% CMC (volume of 10 ml/kg). Food was introduced for one hour only then food was removed immediately. Blood glucose levels were determined just before and 3 h after drug administration and then at 0, 60, 120 and 180 min after meal. Blood Sampling and Blood Glucose Determination
(§1) Blood samples were collected from the tail vein and the blood glucose level was determined. Curves of blood glucose levels (mg/dL) versus the time intervals (min) were constructed and the area under the curves (AUCs) were calculated by the method of calculation embedded in GraphPad Prism® v. 5.0 (GraphPad Software, San Diego, Calif., USA). AUCs of the curves of the different groups were compared and tested for significance against control groups.

A further test has as its system STZ-diabetic mice. In words: Fasting blood glucose of diabetic mice during six days of treatment. The settings on record: for activity in controlling the rise of blood glucose levels in streptozotocin diabetic animals (in words) / control of fasting blood sugar compared with sitagliptin and the other compounds (in words): 50 mg/kg/day; for activity in controlling the rise of blood glucose levels in streptozotocin diabetic animals (in words): 6-day interval; for control of fasting blood sugar compared with sitagliptin and the other compounds (in words): 6 days; for Blood glucose level, fasting: 50 mg/kg/day oral, diabetic mice, mean ± SEM.
Text: Our objective was to test the efficacy of the synthesized compounds for their potential to reduce blood glucose in STZ-diabetic mice. The synthesized compounds Nos. 128, 129, 130, 131,140, 142 were expected to act through the inhibition of the DPP-IV enzyme, which is responsible for the degradation of the entero-peptide GLP-I. In turn, GLP-I increases insulin and decreases glucagon release from the pancreatic islets (β and α-cells respectively). So this part of the project was designed to study the effect of the synthesized gliptin simulated compounds on blood glucose levels and their efficacy to increase glucose utilization in diabetic mice through: • a. The effect of the tested compounds in a dose of 50 mg/kg/day on fasting blood glucose blood levels of diabetic mice during six days of treatment. • b. Oral glucose tolerance test (OGTT) through oral glucose loading, 2 h after treatment with single oral dose (50 mg/kg) of the tested compounds in 14 h overnight fasted mice. • c. OGTT through oral glucose loading, 2 h after treatment with the 6th oral dose (50 mg/kg) of the tested compounds in 14 h overnight fasted mice. • d. The effect of the pretreatment with the tested compounds at an oral dose of 50 mg/kg on blood glucose levels, 3 h before and 3 h after meal feeding (feeding for one hour only, then food was removed immediately) in 14 h overnight-fasted diabetic mice.
as §1
All data are presented as means±SEM. Statistical significance was evaluated by analysis of variance (ANOVA) followed by Tukey-Kramer's post hoc test for multiple comparisons. The “t” of the paired data was used to test the significance of the values of the fasting blood glucose compared to the values before treatment. Statistical significance was accepted at a level of p<0.05.

Test [2] has as its system overnight fasted diabetic mice. In words: OGTT after multiple doses (6 consecutive days). The settings on record: for AUC in OGTT, % change from diabetic control / AUC in OGTT, Δ from diabetic control / Relative potency to sitagliptin (OGTT AUC) / AUC in OGTT, X (arithmetic mean): 50 mg/kg oral for six days; for AUC in OGTT, X (arithmetic mean): 2 h before glucose loading, AUC 0-120 min. The procedure:
The tested compounds were given daily by oral gavage for 6 consecutive days. On day 6, the overnight fasted diabetic mice were pretreated with the 6th oral dose of the tested compounds. Then an oral glucose was loaded (2 g/kg/10 ml b.w.) 2 h after drug treatment. Blood glucose levels were determined using the Accu-check Go® (Roche Diagnostics, Michigan, USA). Samples were collected just before drug administration (Fasting Blood glucose), then 2 h after drug treatment and before glucose administration. Sample collection was continued at 20, 40, 60 and 120 min intervals after glucose loading.
• b. Group 1: Animals of this group are 14 h overnight-fasted normoglycemic mice received the vehicle (1% CMC-Na) at a dosing volume of 10 ml/kg/day for six consecutive days. • c. Group 2: Overnight-fasted diabetic mice received the vehicle (1% CMC-Na) at a dosing volume of 10 ml/kg/day for six consecutive days and served as a negative control. • d. Group 3: Overnight-fasted diabetic mice received sitagliptin at a dose of 50 mg/kg/day for six consecutive days and served as positive control. • e. Groups 4-17: Animals in these groups were overnight-fasted diabetic mice and received the tested compounds 128, 129, 130, 131, at a dose of 50 mg/kg/day for six consecutive days (volume of 10 ml/kg). Effect on Blood Glucose Level after Introduction of Food for One Hour (≈Meal Tolerance Test) Rational of the Test

Test [3] concerns 14 h overnight fasted diabetic mice. Kind of test: Oral glucose tolerance test (OGTT) after single dose. As to conditions: for glucose-lowering activity in OGTT compared with sitagliptin (in words): single dose 50 mg/kg; for Relative potency to sitagliptin (OGTT AUC) / AUC in OGTT, % change from diabetic control / AUC in OGTT, Δ from diabetic control / AUC in OGTT, X (arithmetic mean): single oral dose 50 mg/kg; for AUC in OGTT, X (arithmetic mean): AUC 0-120 min. The protocol: The oral glucose tolerance test was done in 14 h overnight fasted diabetic mice that were pretreated with a single oral dose of the tested compounds. Each of the tested agents was suspended in sodium carboxymethyl cellulose (CMC-Na) (1% in distilled water) and the dosing volume was adjusted to 10 ml/kg body weight per mouse. Then an oral glucose load was administered (2 g/kg) 2 h after drug treatment. Blood glucose levels were determined using the Accu-check Go® (Roche Diagnostics, Michigan, USA). Blood samples were collected just before drug administration (Fasting Blood glucose), then 2 h after drug treatment and before glucose loading. Blood samples collection was continued at 20, 40, 60 and 120 min intervals after glucose loading.
Animals were distributed between 17 groups (n=6) as follow: • a. Group 1: Animals were 14 h overnight-fasted normoglycemic mice and vehicle-treated (1% CMC-Na) at a dose of 10 ml/kg. • b. Group 2: Overnight fasted diabetic mice received the vehicle (1% CMC-Na) at a dosing volume of 10 ml/kg and served as a negative control. • c. Group 3: Overnight fasted diabetic mice received sitagliptin at a dose of 50 mg/kg in 1% CMC (in a volume of 10 ml/kg) and served as positive control. • a. Groups 4-17: Animals of these groups were overnight fasted diabetic mice received the tested compounds 128, 129, 130, 131, at a dose of 50 mg/kg in 1% CMC (volume of 10 ml/kg).

Marks after values point to notes of the source that are not given here.

With `O=C(NCC(=O)N1CCn2c(nnc2C(F)(F)F)C1)c1cccc(Cl)c1` [GLP-128], in test [1], the “antihyperglycemic activity after introduction of food (blood glucose rise and total AUC(0-180), in words)” value (from here on “antihyperglycemic activity”) is recorded as “significant antihyperglycemic activity”; the “Area under the curve AUC(0-180) after meal feeding” value (“Area” for short) is 69336 ± mg · dL^−1 · min. In addition, in the test on STZ-diabetic mice, the “activity in controlling the rise of blood glucose levels in streptozotocin diabetic animals (in words)” value (from here on “activity in controlling the rise”) was “significant activity”; the “control of fasting blood sugar compared with sitagliptin and the other compounds (in words)” value is “least effective”. Also, in the test on STZ-diabetic mice (Day 4), the “Blood glucose level, fasting” value turned out to be 195.00 ± 27.49 mg/dL. The “Blood glucose level, fasting” value with STZ-diabetic mice (Day 5) was determined as 200.60 ± 23.21 mg/dL. Further, the “Blood glucose level, fasting” value with STZ-diabetic mice (Day 6) is reported as 188.60 ± 15.86 mg/dL. In test [2], the “AUC in OGTT, % change from diabetic control” value (“AUC in OGTT, % change” for short) is −11.93%; the “AUC in OGTT, Δ from diabetic control” value was -6287 mg·min/dL; the “Relative potency to sitagliptin (OGTT AUC)” value (shortened to “Relative potency … (OGTT AUC)”) is reported as 0.32; the “AUC in OGTT, X (arithmetic mean)” value turned out to be 46368 mg·min/dL. In addition, in test [3], the “glucose-lowering activity in OGTT compared with sitagliptin (in words)” value was “higher glucose-lowering activity than sitagliptin” and the “Relative potency … (OGTT AUC)” value stood at 1.2. In test [3] (2 h before glucose loading), the “AUC in OGTT, % change” value was −29.15%; the “AUC in OGTT, Δ from diabetic control” value was -14887 mg·min/dL; the “AUC in OGTT, X (arithmetic mean)” value is 36178* mg · dL^−1 · min.
Regarding `O=C(NCC(=O)N1CCn2c(nnc2C(F)(F)F)C1)c1ccc(Cl)cc1` [GLP-131], in test [1], the “antihyperglycemic activity” value is listed as “significant antihyperglycemic activity”; the “Area” value is 56340 ± mg · dL^−1 · min. Moreover, in the test on STZ-diabetic mice, the “activity in controlling the rise” value is “significant activity”; the “control of fasting blood sugar compared with sitagliptin and the other compounds (in words)” value was “most consistent and extended activities”. For the same compound, in the test on STZ-diabetic mice (listed as 131), the “control of fasting blood sugar compared with sitagliptin and the other compounds (in words)” value is recorded as “comparable to that of sitagliptin”. In test [2], the “AUC in OGTT, % change” value is −49.59%; the “AUC in OGTT, Δ from diabetic control” value was -26113 mg·min/dL; the “Relative potency … (OGTT AUC)” value is 1.31; the “AUC in OGTT, X (arithmetic mean)” value is recorded as 26542* mg · dL^−1 · min. Besides, the “relative potency in OGTT compared with sitagliptin (in words)” value in test [2] (6 consecutive days, 50 mg/kg) is on record as “comparable or higher relative potency than sitagliptin”. Also, in test [3], the “glucose-lowering activity in OGTT compared with sitagliptin (in words)” value is listed as “higher glucose-lowering activity than sitagliptin” and the “Relative potency … (OGTT AUC)” value worked out at 1.52. In test [3] (2 h before glucose loading), the “AUC in OGTT, % change” value is −36.88%; the “AUC in OGTT, Δ from diabetic control” value is -18835 mg·min/dL; the “AUC in OGTT, X (arithmetic mean)” value was 32230* mg · dL^−1 · min.
In the case of `O=C(NCCC(=O)N1CCn2c(nnc2C(F)(F)F)C1)c1cccc(Cl)c1` [GLP-129], in test [1], the “antihyperglycemic activity” value is recorded as “significant antihyperglycemic activity”; the “Area” value is on record as 73248 ± mg · dL^−1 · min. In addition, in the test with STZ-diabetic mice, the “activity in controlling the rise” value was “significant activity”; the “control of fasting blood sugar compared with sitagliptin and the other compounds (in words)” value was “comparable to that of sitagliptin”. In test [2], the “AUC in OGTT, % change” value is reported as −11.76%; the “AUC in OGTT, Δ from diabetic control” value was -6197 mg·min/dL; the “Relative potency … (OGTT AUC)” value was determined as 0.31; the “AUC in OGTT, X (arithmetic mean)” value stood at 46458 mg·min/dL. In test [3], the “glucose-lowering activity in OGTT compared with sitagliptin (in words)” value was “less potent than sitagliptin” and the “Relative potency … (OGTT AUC)” value turned out to be 0.45. In addition, in test [3] (2 h before glucose loading), the “AUC in OGTT, % change” value is reported as −10.93%; the “AUC in OGTT, Δ from diabetic control” value was -5585 mg·min/dL; the “AUC in OGTT, X (arithmetic mean)” value came out at 45480 mg·min/dL.
Take `N[C@@H](CC(=O)N1CCn2c(nnc2C(F)(F)F)C1)Cc1cc(F)c(F)cc1F` [Sitagliptin, sitagliptin, reference compound]: in test [1], the “antihyperglycemic activity” value was “significant antihyperglycemic activity”; the “Area” value is recorded as 51776 ± mg · dL^−1 · min. In test [2], the “AUC in OGTT, % change” value is −37.85%; the “AUC in OGTT, Δ from diabetic control” value is -19932 mg·min/dL; the “Relative potency … (OGTT AUC)” value was 1; the “AUC in OGTT, X (arithmetic mean)” value amounted to 32723 mg·min/dL. Moreover, the “reduction in the total AUC compared to the diabetic control mice” value in test [3] (single dose, 2 h before glucose loading, AUC 0-120) is given as 24.2%. Besides, in test [3], the “Relative potency … (OGTT AUC)” value is 1. Moreover, in test [3] (2 h before glucose loading), the “AUC in OGTT, % change” value was −24.20%; the “AUC in OGTT, Δ from diabetic control” value is -12362 mg·min/dL; the “AUC in OGTT, X (arithmetic mean)” value is 38703* mg · dL^−1 · min.
